From article PMC6207662, “Postprandial glycaemia-lowering effect of a green tea cultivar Sunrouge and cultivar-specific metabolic profiling for determining bioactivity-related ingredients” (Scientific Reports, 2018)

Key:
[1] = target: T1, α-Glucosidase from Saccharomyces cerevisiae (Saccharomyces cerevisiae, UniProt P53341); test: Assay of α-glucosidase activity (cell-free, QuantiChrom kit); assay type: biochemical; details: for IC50: cell-free system; for order of α-glucosidase inhibitory rate: 10 μM, n=3, Supplementary Fig. S4; for enhancement of α-glucosidase inhibitory ability by O-methylation (IC50 ratio non-methylated/methylated): IC50 of parent catechin / IC50 of its 3”-O-methylated form
T1 construct: purchased Sigma-Aldrich
T1 sequence (P53341 whole entry): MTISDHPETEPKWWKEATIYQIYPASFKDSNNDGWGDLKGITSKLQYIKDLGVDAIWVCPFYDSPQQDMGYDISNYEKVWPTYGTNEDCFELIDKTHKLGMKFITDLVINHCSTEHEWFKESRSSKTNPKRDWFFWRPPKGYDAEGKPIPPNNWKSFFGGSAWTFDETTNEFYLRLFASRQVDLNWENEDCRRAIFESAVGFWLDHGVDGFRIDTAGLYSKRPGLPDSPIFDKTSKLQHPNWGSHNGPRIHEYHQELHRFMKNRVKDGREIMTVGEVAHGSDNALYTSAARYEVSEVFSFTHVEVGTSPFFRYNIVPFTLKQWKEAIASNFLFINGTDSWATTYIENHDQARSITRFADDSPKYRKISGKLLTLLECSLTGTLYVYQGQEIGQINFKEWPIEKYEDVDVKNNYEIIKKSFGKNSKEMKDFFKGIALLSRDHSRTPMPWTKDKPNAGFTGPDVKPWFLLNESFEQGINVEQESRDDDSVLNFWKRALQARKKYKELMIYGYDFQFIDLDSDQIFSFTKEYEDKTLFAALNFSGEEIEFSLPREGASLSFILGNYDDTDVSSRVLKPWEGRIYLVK
Experimental: α-Glucosidase from Saccharomyces cerevisiae (Sigma-Aldrich) was dissolved in phosphate buffered saline (PBS) at a concentration of 0.01 mg/mL. Tea extracts were diluted 1:10 with distilled water. Tea extracts or various concentrations of flavonoids in DMSO were mixed 1:1 with the α-glucosidase solution. The α-glucosidase activity of the mixture was measured by the QuantiChrom™ α-Glucosidase Assay Kit (Bio Assay Systems, Hayward, CA, USA) according to the manufacturer’s instructions.

[2] = test system: postprandial blood glucose level; test: Starch tolerance test in mice (postprandial blood glucose); assay type: in vivo, mice (male ICR); details: compound 500 mg/kg b.w. with soluble starch 2,000 mg/kg b.w., Supplementary Fig. S5
Experimental: Nine-week-old male ICR mice were purchased from Kyudo Company (Saga, Japan). All mice were housed and maintained in a temperature and humidity controlled room with a 12-h light-dark cycle (light from 8 am to 8 pm). All animal studies were performed in accordance with the law (protocol no. 105) and notification (protocol no. 6) of the Japanese government for the welfare of experimental animals. The study protocol was approved by the Animal Care and Use Committee, Kyushu University (Kyushu University, Scientific Research Promotion Division). Mice were randomly divided into 3 groups (n = 8) with equivalent mean body weight and starved overnight. Mice were orally administered with soluble starch (2,000 mg/kg b.w.) (Wako, Osaka, Japan) alone, or in combination with a test sample. All solutions were made in distilled water. Blood was sampled from the tail vein at before (t = 0), 30, 60, 90, 120 and 150 min after administration. The blood glucose level was measured with the Medisafe Mini GR-102 (Terumo Co., Tokyo, Japan) and the areas under the curves (AUC) were calculated.

Row | Compound | IC50 [1] | order of α-glucosidase inhibitory rate [1] | elevation of postprandial blood glucose level in oral starch tolerance test [2] | effect on the activity of α-glucosidase ([1]; Supplementary Fig. S2) | enhancement of α-glucosidase inhibitory ability by O-methylation (IC50 ratio non-methylated/methylated) [1]
1 | Oc1cc(O)c2cc(O)c(-c3cc(O)c(O)c(O)c3)[o+]c2c1 [Del, delphinidin] | 31.6 µM | – | – | – | –
2 | OC[C@H]1O[C@@H](Oc2cc3c(O)cc(O)cc3[o+]c2-c2cc(O)c(O)c(O)c2)[C@H](O)[C@@H](O)[C@@H]1O [Del-glu, delphinidin-3-O-glucoside] | > 100 µM | – | – | – | –
3 | COc1cc(C(=O)O[C@@H]2Cc3c(O)cc(O)cc3O[C@@H]2c2ccc(O)c(O)c2)cc(O)c1O [ECG3”Me, epicatechin-3-O-(3-O-methyl) gallate] | 14.7 µM | EGCG3”Me > EGCG > ECG3”Me > ECG | – | – | –
4 | O=c1c(O)c(-c2cc(O)c(O)c(O)c2)oc2cc(O)cc(O)c12 [Myr, myricetin] | 4.4 µM | – | suppressed the elevation of postprandial blood glucose level | – | –
5 | O=c1c(OC2O[C@H](CO)[C@@H](O)[C@H](O)[C@H]2O)c(-c2cc(O)c(O)c(O)c2)oc2cc(O)cc(O)c12 (some centres unmarked) [Myr-glu, myricetin-3-O-glucoside] | > 100 µM | – | – | – | –
6 | CCNC(=O)CC[C@H](N)C(=O)O [theanine, L-theanine] | – | – | – | elevated the activity of α-glucosidase | –
7 | epicatechin-3-O-gallate [ECG] | 61.1 µM | EGCG3”Me > EGCG > ECG3”Me > ECG | – | – | 4.2 fold
8 | epigallocatechin-3-O-(3-O-methyl) gallate [EGCG3”Me] | 8.1 µM | EGCG3”Me > EGCG > ECG3”Me > ECG | – | – | –
9 | epigallocatechin-3-O-gallate [EGCG] | 13.3 µM | EGCG3”Me > EGCG > ECG3”Me > ECG | suppressed the elevation of postprandial blood glucose level | – | 1.6 fold
